Experimental findings from patent US20180021460A1, “PROBES AND METHODS FOR DETECTING AMYLOIDOGENIC PROTEINS” (Academia Sinica, priority 2016, published 2018) are described below.

Data set [1] deals with EGFP-TDP-43 in N2A cells. In words: Microinjection of probe into N2A cells and irradiation. Type of data set: cell-based, mouse. The following applies: N2A cells microinjected, data not shown. An excerpt: The glass microneedles for microinjection (1B100-F4, World Precision Instruments, USA) were pulled with a PC-10 capillary puller (Narishige, Japan). […] A Picospriterzer III microinjection system and a joystick micromanipulator (Narishige, Japan) mounted with a stage-side of a microscope (IX-71, Olympus, Japan) were used for delivering the peptide solution into the cytosol of N2A cells. After microinjection (injection pressure, 80 hPa; injection time, 100 msec; compensation pressure, 20 hPa), cells were subsequently rinsed with 2 mL of L-15 medium supplemented with 10% FBS for 1 hr of recovery.

Data set [2] has as its system EGFP-TDP-43 in N2A cells. Description: EGFP-TDP-43 aggregation / co-localization in JHR2-treated N2A cells (confocal). Type of data set: cell-based, mouse. The procedure:
(§1) Cell Maintenance, Peptide Treatment, and Photolysis
(§2) Mouse neuroblastoma N2A cells (generous gift from Dr. Yijuang Chern, IBMS, Academia Sinica) were cultured in Dulbecco's modified Eagle's medium (DMEM) (Invitrogen) supplemented with 2 mM glutamine, 10% heat-inactivated fetal bovine serum and 100 U/mL penicillin-streptomycin (Invitrogen) at 37° C. in a humidified atmosphere with 5% CO2. Before peptide incubation, cells were treated with 5-aminoimidazole-4-carboxamide-1-β-D-ribofuranoside (AICAR) to induce the cytoplasmic mislocalization of TDP-43. JHR2 was prepared by dissolving the lyophilized powder in the cell culture medium. Cells were incubated with polypeptide-containing medium for 3 hr, washed, and UV-illuminated (mercury lamp with 345-385 nm bandpass filter, average power: 8.24 mW/cm^2).
Confocal and Super-Resolution Fluorescence Microscopy with Airy Scan
(§3) For EGFP-TDP-43 expression, 2×10^5 of N2A cells in a 30-mm square coverslip were transfected with 1 μg of full-length TDP-43-EGFP plasmid with TurboFect Transfection Reagent (Thermo Scientific) according to the manufacturer's protocol. After peptide and photolysis treatment as described above, cells were incubated for an additional 24 hr and then fixed with 4 paraformaldehyde. Confocal images were captured with LSM 880 and super resolution imaging was performed with Airy Scan (Zeiss, Germany). […]

A short description of data set [3]: Transmission electron microscopy (vesicle size, fibril formation). Type of data set: physicochemical. The conditions noted are these: upon illumination 335-379 nm, 8.24 mW/cm^2, 3 mins. The procedure: Transmission Electron Microscopy
The resulting aliquots of peptide solutions (5 μL) were applied on glow-charged 300 mesh formvar- and carbon-coated copper grids stained with 1% uranyl acetate. After drying overnight, all samples were analyzed using a JEM-2011 electron microscope (JEOL, Japan).

Data set [4] deals with Ran (RAS-related nuclear protein). In words: Localization of endogenous Ran in JHR2-treated cells. Type of data set: cell-based. On the procedure: as §2
For EGFP-TDP-43 expression, 2×10^5 of N2A cells in a 30-mm square coverslip were transfected with 1 μg of full-length TDP-43-EGFP plasmid with TurboFect Transfection Reagent (Thermo Scientific) according to the manufacturer's protocol. After peptide and photolysis treatment as described above, cells were incubated for an additional 24 hr and then fixed with 4 paraformaldehyde. Confocal images were captured with LSM 880 and super resolution imaging was performed with Airy Scan (Zeiss, Germany). For immunostaining, anti-TDP-43 antibody (Abcam, ab104223) and anti-Ran (Abcam, ab155103) antibody were used, respectively.

For data set [5], the system named is endogenous TDP-43 in N2A cells. Description: Endogenous TDP-43 aggregates in N2A cells (immunostaining, high content analysis). The data set is classed as cell-based, mouse. The conditions noted are these: pinhole-confined UV light spot, 24 hr incubation. On the procedure:
as §1, §2, §3

The subject of data set [6] is EGFP-TDP-43 in N2A cells. In words: Time-lapse living cell fluorescence microscopy and Annexin V staining. Type of data set: cell-based, mouse. The procedure: Time-lapse Living Fluorescence Cell Microscopy and Annexin V Staining
N2A cells (5×10^4) were transfected with 1 μg of full-length TDP-43-EGFP in a sterilized 35 mm μ-Dish (Ibidi, Martinsried, Germany). The living cells were imaged with a Nikon TiE inverted microscope equipped with a Tokai-hit constant humidity chamber (37° C., 5% CO2) for 25 hr. Hoechst, EGFP, Aleax Fluor 568 and Cy5 cube filters were used to collect the fluorescence emission accordingly. Cellular images were captured with an Andor iXon3 888 back-illuminated high sensitivity EMCCD camera. Images were analyzed and quantified using Nikon NIS element software. After 24 hr of peptide treatment, the cells were washed twice with PBS, washed once with 1× Annexin V binding buffer, incubated with Annexin V-Cy5 (BioVision, USA) at room temperature and imaged.

In the next data set the test system is TDP-43 and importin-α1. Description: Localization of endogenous TDP-43 and importin-α1 in JHR2-treated cells. Type of data set: cell-based.

Non-standard residues stand in square brackets, D forms with d. No end group written: not given here. o‑nitrobenzyl photocleavable linker = o-nitrobenzyl photocleavable moiety placed between the 8R peptide and the amyloidogenic sequence; Alexa568 = Alexa568 fluorophore linked to the cysteine residue Some results are limits rather than exact numbers.

On to “JHR2: Same peptide probe as JHR1 with Alexa568 fluorophore linked to the cysteine residue instead of tert-butyl thiol (RRRRRRRR[o‑nitrobenzyl photocleavable linker]MGGGMNFGAFSINPAMC(Alexa568)-NH2)”, for which, in the data set on EGFP-TDP-43 in N2A cells [1], the “onset of EGFP-TDP43 aggregation after microinjection and irradiation” value was determined as 4 h; the “onset of clustering of JHR2 after microinjection and irradiation” value was found to be 2 h. Moreover, the “aggregates of JHR2 and EGFP-TDP-43 after irradiation” value in the data set on EGFP-TDP-43 in N2A cells [2] (AICAR pretreated, 24 hrs after non-focused light 335-379 nm, 8.24 mW/cm^2, 3 mins) is recorded as “developed pronounced aggregates and/or inclusion bodies that were largely co-localized in the cytosol”. Besides, the cell penetration entry in the data set on EGFP-TDP-43 in N2A cells [2] (JHR2 1 μM, 3 hr) is listed as “may quickly penetrate cells”. In data set [3], the “time to detection of massive fibrils (TEM)” value was no more than 4 h. Besides, in data set [4] (+JHR2+Light), the “Ran protein miss-localized into the cytoplasm” value is listed as greater than 90%. Also, the “Ran localization, probe-treated only (no light)” value in data set [4] (+JHR2−Light) is recorded as “mainly resided in the nucleus”. Moreover, in data set [5], the “seeding of endogenous TDP-43 cytosolic aggregation within confined illuminated area” value is “selectively induced the JHR2 amyloid to “seed” endogenous TDP-43 cytosolic aggregation”. Besides, in the data set with EGFP-TDP-43 in N2A cells [6] (N2A cells expressing EGFP-TDP-43, with JHR2, after illumination), the “time at which EGFP-TDP-43 puncta became detectable” value is reported as “Twenty hours after illumination, the EGFP-TDP-43 puncta became detectable”. Moreover, the “apoptosis by Annexin V staining” value with EGFP-TDP-43 in N2A cells [6] (N2A cells with EGFP-TDP-43 inclusion bodies, end of time course 25 hr) is on record as “on the verge of apoptosis”. Besides, the “TDP-43 and importin-α1 localization under photoactivation” value in the data set with TDP-43 and importin-α1 (+JHR2+Light) was “translocated from the nucleus to cytosol and formed aggregates”. Further, the “importin-α1 localization, probe-treated only (no light)” value in the data set on TDP-43 and importin-α1 (+JHR2−Light) is “mainly remained in the nucleus”.
